Like-named read-outs stand apart in the source and are kept apart here.
Key:
[1] = system: HIV-1 (IIIB) in MT-4 cells; assay: MT-4 HIV assay; type: cell-based; conditions: Human immunodeficiency virus 1, MT4, 120 h
Method in brief: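 Antiviral activity was read by Cell Titer Glo after a 5-day, 37 °C culture of MT-4 cells pre-infected with a 1:250 dilution of HIV-1 (IIIB). Compounds were tested as threefold dilution series in complete RPMI. Controls were no drug, mock infection and 5 uM AZT.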

[2] = Method in brief: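 LC/MS/MS read-out of parent compound remaining; in vitro t1/2 converted to Clint. Incubation: 1 uM compound, 0.5 mg/mL dog/rat/human liver microsomes, NADPH-regenerating system, duplicate sets, time-points 2–65 minutes.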
[3] = HIV-1 (IIIB), MT-4 cells, 5 days, Cell Titer Glo, read-out: EC50
[4] = human liver microsomes 0.5 mg/mL, 1 uM compound, NADPH
[5] = rat liver microsomes 0.5 mg/mL, 1 uM compound, NADPH

Row | Dog. Pred. Cl. ([2]; dog liver microsomes 0.5 mg/mL, 1 uM compound, NADPH) [L/H/kg] | Human Pred Cl. [2, 4] [L/H/kg] | Rat. Pred. Cl. [2, 5] [L/H/kg] | SMILES | EC50 [1, 3] [nM] | Human Pred Cl. ([2]; human, microsomes) [L/H/kg] | EC50 [1] [nM] | Rat. Pred. Cl. ([2]; rat, microsomes) [L/H/kg] | Dog. Pred. Cl. ([2]; dog, microsomes) [L/H/kg]
1 |  |  |  | COC(=O)N[C@H](C(=O)NN(Cc1c(F)cc(-c2ccc(F)cn2)cc1F)C[C@H](O)[C@H](Cc1ccc(C#Cc2ccc(N3CC4CCC(C3)N4C3COC3)nc2)cc1)NC(=O)[C@@H](NC(=O)OC)C(C)(C)C(F)(F)F)C(C)(C)C [Example 105, Methyl ((5S,8S,9S,14S)-11-(2,6-difluoro-4-(5-fluoropyridin-2-yl)benzyl)-9-hydroxy-15,15-dimethyl-8-(4-((6-(8-(oxetan-3-yl)-3,8-diazabicyclo [3.2.1]octan-3-yl)pyridin-3-yl)ethynyl)benzyl)-3,6,13-trioxo-5-(1,1,1-trifluoro-2-methylpropan-2-yl)-2-oxa-4,7,11,12-tetraazahexadecan-14-yl)carbamate] | 3.16 | 0.39 |  |  | 
2 | 1.66 | 0.16 | 1.01 | COC(=O)N[C@H](C(=O)N[C@@H](Cc1ccc(C#Cc2ccc(N3C[C@H]4C[C@@H]3CN4C3COC3)nc2)cc1)[C@@H](O)CN(Cc1c(F)cc(-c2ccn(CC(F)F)n2)cc1F)NC(=O)[C@@H](NC(=O)OC)C(C)(C)C(F)(F)F)C(C)(C)C(F)(F)F [Example 43, Methyl ((5S,8S,9S,14S)-11-(4-(1-(2,2-difluoroethyl)-1H-pyrazol-3-yl)-2,6-difluorobenzyl)-16,16,16-trifluoro-9-hydroxy-15,15-dimethyl-8-(4-((6-((1R,4R)-5-(oxetan-3-yl)-2,5-diazabicyclo[2.2.1]heptan-2-yl)pyridin-3-yl)ethynyl)benzyl)-3,6,13-trioxo-5-(1,1,1-trifluoro-2-methylpropan-2-yl)-2-oxa-4,7,11,12-tetraazahexadecan-14-yl)carbamate] |  |  | 2.87 |  | 
3 |  |  |  | COC(=O)N[C@H](C(=O)N[C@@H](Cc1ccc(C#Cc2cnc(N3CC4CCC(C3)N4C3COC3)nc2)cc1)[C@@H](O)CN(Cc1ccc(-c2ccn(C(F)F)n2)cc1)NC(=O)[C@@H](NC(=O)OC)C(C)(C)C(F)(F)F)C(C)(C)C(F)(F)F [Example 122, Methyl ((5S,8S,9S,14S)-11-(4-(1-(difluoromethyl)-1H-pyrazol-3-yl)benzyl)-16,16,16-trifluoro-9-hydroxy-15,15-dimethyl-8-(4-((2-(8-(oxetan-3-yl)-3,8-diazabicyclo[3.2.1]octan-3-yl)pyrimidin-5-yl)ethynyl)benzyl)-3,6,13-trioxo-5-(1,1,1-trifluoro-2-methylpropan-2-yl)-2-oxa-4,7,11,12-tetraazahexadecan-14-yl)carbamate] | 4.57 | <0.11 |  |  | 
4 |  |  |  | COC(=O)N[C@H](C(=O)NNC[C@H](O)[C@H](Cc1ccc(C#Cc2cnc(N3CC4CCC(C3)N4C3COC3)nc2)cc1)NC(=O)[C@@H](NC(=O)OCCc1c(F)cc(-c2cn(C34CC(C3)C4)nn2)cc1F)C(C)(C)C(F)(F)F)C(C)(C)C(F)(F)F [Example 131, Methyl ((5S,8S,9S,14S)-1-(4-(1-(bicyclo[1.1.1]pentan-1-yl)-1H-1,2,3-triazol-4-yl)-2,6-difluorobenzyl)-16,16,16-trifluoro-9-hydroxy-15,15-dimethyl-8-(4-((2-(8-(oxetan-3-yl)-3,8-diazabicyclo[3.2.1]octan-3-yl)pyrimidin-5-yl)ethynyl)benzyl)-3,6,13-trioxo-5-(1,1,1-trifluoro-2-methylpropan-2-yl)-2-oxa-4,7,11,12-tetraazahexadecan-14-yl)carbamate] | 5.24 | <0.11 |  |  | 
5 |  | <0.11 |  | COC(=O)N[C@H](C(=O)N[C@@H](Cc1ccc(C#Cc2cnc(N3CCN(C)C(=O)C3)nc2)cc1)[C@@H](O)CN(Cc1c(F)cc(-c2ccn(C(F)F)n2)cc1F)NC(=O)[C@@H](NC(=O)OC)C(C)(C)C(F)(F)F)C(C)(C)C(F)(F)F [Example 159, methyl ((5S,8S,9S,14S)-11-(4-(1-(difluoromethyl)-1H-pyrazol-3-yl)-2,6-difluorobenzyl)-16,16,16-trifluoro-9-hydroxy-15,15-dimethyl-8-(4-((2-(4-methyl-3-oxopiperazin-1-yl)pyrimidin-5-yl)ethynyl)benzyl)-3,6,13-trioxo-5-(1,1,1-trifluoro-2-methylpropan-2-yl)-2-oxa-4,7,11,12-tetraazahexadecan-14-yl)carbamate] |  |  | 3.83 |  | 
6 |  |  |  | COC(=O)N[C@H](C(=O)NN(Cc1c(F)cc(-c2cn(C(F)F)cn2)cc1F)C[C@H](O)[C@H](Cc1ccc(C#Cc2ccc(N3CC4CCC(C3)N4C3COC3)nc2)cc1)NC(=O)[C@@H](NC(=O)OC)C(C)(C)C(F)(F)F)C(C)(C)C [Example 77, Methyl ((5S,8S,9S,14S)-11-(4-(1-(difluoromethyl)-1H-imidazol-4-yl)-2,6-difluorobenzyl)-9-hydroxy-15,15-dimethyl-8-(4-((6-(8-(oxetan-3-yl)-3,8-diazabicyclo [3.2.1]octan-3-yl)pyridin-3-yl)ethynyl)benzyl)-3,6,13-trioxo-5-(1,1,1-trifluoro-2-methylpropan-2-yl)-2-oxa-4,7,11,12-tetraazahexadecan-14-yl)carbamate] | 2.49 | <0.11 |  | 0.25 | 
7 |  |  |  | COC(=O)N[C@H](C(=O)N[C@@H](Cc1ccc(C#Cc2cnc(N3CC4CCC(C3)N4C3COC3)cn2)cc1)[C@@H](O)CN(Cc1c(F)cc(-c2ccn(C(F)F)n2)cc1F)NC(=O)[C@@H](NC(=O)OC)C(C)(C)C(F)(F)F)C(C)(C)C(F)(F)F [Example 50, Methyl ((5S,8S,9S,14S)-11-(4-(1-(difluoromethyl)-1H-pyrazol-3-yl)-2,6-difluorobenzyl)-16,16,16-trifluoro-9-hydroxy-15,15-dimethyl-8-(4-((5-(8-(oxetan-3-yl)-3,8-diazabicyclo[3.2.1]octan-3-yl)pyrazin-2-yl)ethynyl)benzyl)-3,6,13-trioxo-5-(1,1,1-trifluoro-2-methylpropan-2-yl)-2-oxa-4,7,11,12-tetraazahexadecan-14-yl)carbamate] | 4.31 | <0.11 |  | <0.18 | 
8 |  |  |  | COC(=O)N[C@H](C(=O)N[C@@H](Cc1ccc(C#Cc2ccc(N3CC4CCC(C3)N4C3COC3)nc2)cc1)[C@@H](O)CN(Cc1c(F)cc(-c2ccc(C(F)F)cn2)cc1F)NC(=O)[C@@H](NC(=O)OC)C(C)(C)C(F)(F)F)C(C)(C)C(F)(F)F [Example 99, Methyl ((5S,8S,9S,14S)-11-(4-(5-(difluoromethyl)pyridin-2-yl)-2,6-difluorobenzyl)-16,16,16-trifluoro-9-hydroxy-15,15-dimethyl-8-(4-((6-(8-(oxetan-3-yl)-3,8-diazabicyclo [3.2.1]octan-3-yl)pyridin-3-yl)ethynyl)benzyl)-3,6,13-trioxo-5-(1,1,1-trifluoro-2-methylpropan-2-yl)-2-oxa-4,7,11,12-tetraazahexadecan-14-yl)carbamate] | 7.96 | <0.11 |  | 0.26 | 
9 |  |  |  | COC(=O)N[C@H](C(=O)N[C@@H](Cc1ccc(-c2cnc(N3CC4CCC(C3)N4C3COC3)nc2)cc1)[C@@H](O)CN(Cc1c(F)cc(-c2ncccn2)cc1F)NC(=O)[C@@H](NC(=O)OC)C(C)(C)C(F)(F)F)C(C)(C)C(F)(F)F [Example 201, Methyl ((5S,8S,9S,14S)-11-(2,6-difluoro-4-(pyrimidin-2-yl)benzyl)-16,16,16-trifluoro-9-hydroxy-15,15-dimethyl-8-(4-(2-(8-(oxetan-3-yl)-3,8-diazabicyclo [3.2.1]octan-3-yl)pyrimidin-5-yl)benzyl)-3,6,13-trioxo-5-(1,1,1-trifluoro-2-methylpropan-2-yl)-2-oxa-4,7,11,12-tetraazahexadecan-14-yl)carbamate] | 2.67 | 0.27 |  | 0.49 | 
10 |  |  |  | COC(=O)N[C@H](C(=O)N[C@@H](Cc1ccc(C#Cc2cnc(N3CC4CCC(C3)N4C3COC3)nc2)cc1)[C@@H](O)CN(Cc1c(F)cc(-c2cn(C(F)F)nn2)cc1F)NC(=O)[C@@H](NC(=O)OC)C(C)(C)C(F)(F)F)C(C)(C)C(F)(F)F [Example 219, Methyl ((5S,8S,9S,14S)-11-(4-(1-(difluoromethyl)-1H-1,2,3-triazol-4-yl)-2,6-difluorobenzyl)-16,16,16-trifluoro-9-hydroxy-15,15-dimethyl-8-(4-((2-(8-(oxetan-3-yl)-3,8-diazabicyclo[3.2.1]octan-3-yl)pyrimidin-5-yl)ethynyl)benzyl)-3,6,13-trioxo-5-(1,1,1-trifluoro-2-methylpropan-2-yl)-2-oxa-4,7,11,12-tetraazahexadecan-14-yl)carbamate] | 4.1 | <0.11 |  | 0.24 | 0.19
11 |  | 1.12 | 1.21 | COC(=O)N[C@H](C(=O)N[C@@H](Cc1ccc(-c2cnn(C(F)F)c2)cc1)[C@@H](O)CN(Cc1c(F)cc(-c2ccn(C(F)F)n2)cc1F)NC(=O)[C@@H](NC(=O)OC)C(C)(C)C(F)(F)F)C(C)(C)C(F)(F)F [Example 209, Methyl ((5S,8S,9S,14S)-11-(4-(1-(difluoromethyl)-1H-pyrazol-3-yl)-2,6-difluorobenzyl)-8-(4-(1-(difluoromethyl)-1H-pyrazol-4-yl)benzyl)-16,16,16-trifluoro-9-hydroxy-15,15-dimethyl-3,6,13-trioxo-5-(1,1,1-trifluoro-2-methylpropan-2-yl)-2-oxa-4,7,11,12-tetraazahexadecan-14-yl)carbamate] |  |  | 3.19 |  | 
